# Assay: Toxicity in Artemia salina larvae after 24 hrs
# Type: organism-based
# Settings: in vivo
row,Compound,LC50 at 24 h [µg/mL]
1,COc1ccc2c(c1)OC[C@H]1Oc3cc(O)ccc3C(c3cc([C@@H]4COc5cc(O)ccc5C4)ccc3OC)[C@@]21O (stereo partly drawn) [GLIRICIDIN],244
2,COc1ccc2c(c1)OC[C@H]1Oc3cc(O)ccc3C(=O)[C@@]21O [GLIRICIDOL],50.7
3,COc1cc2c(cc1OC)[C@]1(O)C(=O)c3ccc(O)cc3O[C@@H]1CO2,284

# From ChEMBL document CHEMBL1158005, “New 12a-hydroxyrotenoids from gliricidia sepium bark” (J Nat Prod, 1999)
